According to ChEMBL document CHEMBL6153147 (J Med Chem, 2025):

Columns and labels:
A549 = assay: cells; conditions: Homo sapiens
CCRF-CEM = assay: cells; conditions: Homo sapiens
PC-9 = assay: cells; conditions: Homo sapiens
KG-1 = assay: cells; conditions: Homo sapiens
NCI-H460 = assay: cells; conditions: Homo sapiens
K562 = assay: cells; conditions: Homo sapiens
SW-620 = assay: cells; conditions: Homo sapiens
HL-60 = assay: cells; conditions: Homo sapiens
[1] = target: Serine/threonine-protein kinase PLK3 (Homo sapiens, UniProt Q9H4B4); assay: Inhibition of human PLK3 using ATF2 as substrate incubated for 40 mins in presence of [gamma-33P]ATP/Mg acetate by scintillation counting analysis
Sequence of Serine/threonine-protein kinase PLK3 (Q9H4B4 whole entry): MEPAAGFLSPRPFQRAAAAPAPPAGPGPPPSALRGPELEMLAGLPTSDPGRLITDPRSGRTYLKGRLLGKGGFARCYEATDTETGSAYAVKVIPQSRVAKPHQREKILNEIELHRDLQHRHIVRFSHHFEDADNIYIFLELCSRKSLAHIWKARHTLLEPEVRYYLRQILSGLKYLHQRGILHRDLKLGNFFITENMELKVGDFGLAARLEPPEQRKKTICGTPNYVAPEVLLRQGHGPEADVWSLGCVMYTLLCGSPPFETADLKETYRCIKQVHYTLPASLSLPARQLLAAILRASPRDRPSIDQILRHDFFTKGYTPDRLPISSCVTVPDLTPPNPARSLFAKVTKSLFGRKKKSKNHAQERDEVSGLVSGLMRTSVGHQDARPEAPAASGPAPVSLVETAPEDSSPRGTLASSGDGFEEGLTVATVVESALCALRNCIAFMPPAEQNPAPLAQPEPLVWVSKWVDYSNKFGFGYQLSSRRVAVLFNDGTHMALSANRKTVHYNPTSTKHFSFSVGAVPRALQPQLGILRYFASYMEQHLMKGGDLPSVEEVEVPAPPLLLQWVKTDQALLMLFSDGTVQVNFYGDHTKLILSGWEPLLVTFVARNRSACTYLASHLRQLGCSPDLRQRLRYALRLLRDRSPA

[2] = Selectivity ratio of IC50 for inhibition of human PLK2 using ATF2 as substrate to IC50 for inhibition of human PLK1 using ATF2 as substrate
[3] = target: Serine/threonine-protein kinase PLK2 (Homo sapiens, UniProt Q9NYY3); assay: Inhibition of human PLK2 using ATF2 as substrate incubated for 40 mins in presence of [gamma-33P]ATP/Mg acetate by scintillation counting analysis
Sequence of Serine/threonine-protein kinase PLK2 (Q9NYY3 whole entry): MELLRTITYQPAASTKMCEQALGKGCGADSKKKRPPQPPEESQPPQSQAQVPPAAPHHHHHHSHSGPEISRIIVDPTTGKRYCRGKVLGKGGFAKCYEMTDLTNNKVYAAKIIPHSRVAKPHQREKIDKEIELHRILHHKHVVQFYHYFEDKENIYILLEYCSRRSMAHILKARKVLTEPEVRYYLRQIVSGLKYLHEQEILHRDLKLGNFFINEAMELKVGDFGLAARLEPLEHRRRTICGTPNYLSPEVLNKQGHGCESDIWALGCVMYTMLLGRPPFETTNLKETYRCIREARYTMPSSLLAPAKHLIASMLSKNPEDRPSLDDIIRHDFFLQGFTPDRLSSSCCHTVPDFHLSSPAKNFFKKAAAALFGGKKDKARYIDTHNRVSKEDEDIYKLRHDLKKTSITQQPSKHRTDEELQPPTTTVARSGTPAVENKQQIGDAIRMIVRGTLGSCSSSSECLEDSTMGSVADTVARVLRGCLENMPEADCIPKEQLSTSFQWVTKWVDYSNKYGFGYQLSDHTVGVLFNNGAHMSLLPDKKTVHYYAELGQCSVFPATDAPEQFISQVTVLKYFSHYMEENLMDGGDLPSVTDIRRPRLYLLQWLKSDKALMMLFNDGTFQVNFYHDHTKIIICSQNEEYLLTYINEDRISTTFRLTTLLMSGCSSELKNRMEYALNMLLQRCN

[4] = Selectivity ratio of IC50 for inhibition of human PLK3 using ATF2 as substrate to IC50 for inhibition of human PLK1 using ATF2 as substrate
[5] = target: Serine/threonine-protein kinase PLK1 (Homo sapiens, UniProt P53350); assay: Inhibition of human PLK1 using ATF2 as substrate incubated for 40 mins in presence of [gamma-33P]ATP/Mg acetate by scintillation counting analysis
Sequence of Serine/threonine-protein kinase PLK1 (P53350 whole entry): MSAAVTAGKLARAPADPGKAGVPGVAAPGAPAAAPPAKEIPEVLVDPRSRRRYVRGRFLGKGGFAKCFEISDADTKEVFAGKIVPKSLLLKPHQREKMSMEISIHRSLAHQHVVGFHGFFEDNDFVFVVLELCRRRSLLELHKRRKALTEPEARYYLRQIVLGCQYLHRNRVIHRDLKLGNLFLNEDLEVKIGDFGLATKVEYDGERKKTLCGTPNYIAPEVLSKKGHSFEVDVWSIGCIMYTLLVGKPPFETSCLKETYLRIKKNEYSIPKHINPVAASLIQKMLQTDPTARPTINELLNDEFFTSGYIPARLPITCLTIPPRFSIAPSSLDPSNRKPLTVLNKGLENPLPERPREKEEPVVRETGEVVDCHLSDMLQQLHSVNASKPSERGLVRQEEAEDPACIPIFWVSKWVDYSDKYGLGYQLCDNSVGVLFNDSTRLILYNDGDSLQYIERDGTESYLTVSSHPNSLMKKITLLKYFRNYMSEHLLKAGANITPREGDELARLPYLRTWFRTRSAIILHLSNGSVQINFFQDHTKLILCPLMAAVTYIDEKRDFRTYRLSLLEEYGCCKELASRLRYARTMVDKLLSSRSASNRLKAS

Row | SMILES | IC50 (A549) [nM] | IC50 (CCRF-CEM) [nM] | IC50 (PC-9) [nM] | IC50 (KG-1) [nM] | IC50 (NCI-H460) [nM] | IC50 (K562) [nM] | IC50 (SW-620) [nM] | IC50 (HL-60) [nM] | IC50 [1] [nM] | ratio [2] | IC50 [3] [nM] | ratio [4] | IC50 [5] [nM]
1 | CN1CCN(c2ccc(OC(F)(F)F)c(Nc3ncc4c(n3)-c3c(c(C(N)=O)nn3CCO)CC4)c2)CC1 [ONVANSERTIB] | 45 | 34 | 58 | 8660 | 36 | 12 | 18 | 89 |  |  |  |  | 
2 | CC[C@@H]1C(=O)N(C)c2cnc(Nc3cc(N4CCN(C)CC4)cc(Cl)c3OCCO)nc2N1C(C)C |  |  |  |  |  |  |  |  | > 10000 | > 208 | > 10000 | > 208 | 48
3 | CC[C@@H]1C(=O)N(C)c2cnc(Nc3cc(N4CCN(C)CC4)cc(F)c3OCCCO)nc2N1C(C)C | 492 | 112 | 250 | 342 | 95 | 7.7 | 83 | 77 | 9370 | > 625 | > 10000 | 586 | 16
4 | CC[C@@H]1C(=O)N(C)c2cnc(Nc3cc(N4CCN(C)CC4)cc(Cl)c3OC)nc2N1C(C)C |  |  |  |  |  |  |  |  | 3990 | 314 | 5560 | 221 | 18
5 | CC[C@@H]1C(=O)N(C)c2cnc(Nc3cc(N4CCNCC4)ccc3OCCCO)nc2N1C1CCCC1 |  |  |  |  |  |  |  |  | 5570 | > 435 | > 10000 | 225 | 23
6 | CC[C@@H]1C(=O)N(C)c2cnc(Nc3cc(N4CCC(N)CC4)ccc3OCCCO)nc2N1C1CCCC1 |  |  |  |  |  |  |  |  | 6010 | > 319 | > 10000 | 192 | 31
7 | CC[C@@H]1C(=O)N(C)c2cnc(Nc3cc(N4CCNCC4)ccc3OCCO)nc2N1C(C)C |  |  |  |  |  |  |  |  | > 10000 | > 99 | > 10000 | > 99 | 101
8 | CC[C@@H]1C(=O)N(C)c2cnc(Nc3cc(N4CCN(C(=O)OC(C)(C)C)CC4)ccc3OCCCO)nc2N1C1CCCC1 |  |  |  |  |  |  |  |  | > 10000 | > 51 | > 10000 | > 51 | 195
9 | CC[C@@H]1C(=O)N(C)c2cnc(Nc3cc(N4CCN(CC)CC4)cc(F)c3OCCO)nc2N1C1CCCC1 |  |  |  |  |  |  |  |  | > 10000 | > 500 | > 10000 | > 500 | 20
10 | CC[C@@H]1C(=O)N(C)c2cnc(Nc3cc(N4CCN(C)CC4)cc(Cl)c3OCCO)nc2N1C1CCNC1 (some centres undefined) |  |  |  |  |  |  |  |  |  |  |  |  | 9250
11 | CC[C@@H]1C(=O)N(C)c2cnc(Nc3cc(N4CCN(C)CC4)ccc3OCCCO)nc2N1C(C)C |  |  |  |  |  |  |  |  | > 10000 | > 300 | > 10000 | > 300 | 22
12 | CC[C@@H]1C(=O)N(C)c2cnc(Nc3cc(N4CCN(C)CC4)cc(F)c3OCCCO)nc2N1C1CCCC1 | 103 | 90 | 65 | 4810 | 27 | 1780 | 18 | 31 | 2000 | 700 | 7900 | 178 | 11
13 | CC[C@@H]1C(=O)N(C)c2cnc(Nc3cc(N4CCC(N)CC4)ccc3OC)nc2N1C1CCCC1 |  |  |  |  |  |  |  |  | 926 | 17 | 505 | 32 | 29
14 | CC[C@@H]1C(=O)N(C)c2cnc(Nc3cc(N4CCN(CC)CC4)ccc3OCCO)nc2N1C1CCCC1 |  |  |  |  |  |  |  |  | 6980 | > 370 | > 10000 | 258 | 27
15 | CC[C@@H]1C(=O)N(C)c2cnc(Nc3cc(N4CCC(N)CC4)ccc3OCCO)nc2N1C1CCCC1 |  |  |  |  |  |  |  |  | > 10000 | > 292 | > 10000 | > 292 | 34
16 | CC[C@@H]1C(=O)N(C)c2cnc(Nc3cc(N4CCN(C)CC4)cc(Cl)c3OCCCO)nc2N1C(C)C |  |  |  |  |  |  |  |  | > 10000 | > 333 | > 10000 | > 333 | 20
17 | CC[C@@H]1C(=O)N(C)c2cnc(Nc3cc(N4CCN(C)CC4)ccc3OC)nc2N1C1CCCC1 |  |  |  |  |  |  |  |  | 635 | 12 | 255 | 30 | 21
18 | CC[C@@H]1C(=O)N(C)c2cnc(Nc3cc(N4CCN(C(=O)OC(C)(C)C)CC4)ccc3OCCO)nc2N1C1CCCC1 |  |  |  |  |  |  |  |  | > 10000 | > 73 | > 10000 | > 73 | 138
19 | CC[C@@H]1C(=O)N(C)c2cnc(Nc3cc(N4CCNCC4)ccc3OCCO)nc2N1C1CCCC1 |  |  |  |  |  |  |  |  | 5830 | > 256 | > 10100 | 150 | 39

Row | SMILES | IC50 (A549) [nM] | IC50 (CCRF-CEM) [nM] | IC50 (PC-9) [nM] | IC50 (KG-1) [nM] | IC50 (NCI-H460) [nM] | IC50 (K562) [nM] | IC50 (SW-620) [nM] | IC50 (HL-60) [nM] | IC50 [1] [nM] | ratio [2] | IC50 [3] [nM] | ratio [4] | IC50 [5] [nM]
20 | CC[C@@H]1C(=O)N(C)c2cnc(Nc3cc(N4CCN(C)CC4)ccc3OCCO)nc2N1C1CCCC1 |  |  |  |  |  |  |  |  | 5670 | > 450 | > 10100 | 245 | 27
21 | CC[C@@H]1C(=O)N(C)c2cnc(Nc3cc(N4CCN(C)CC4)cc(F)c3OC[C@H](C)O)nc2N1C(C)C |  |  |  |  |  |  |  |  | > 10000 | > 71 | > 10000 | > 71 | 141
22 | CC[C@@H]1C(=O)N(C)c2cnc(Nc3cc(N4CCN(C)CC4)cc(F)c3OC)nc2N1C(C)C |  |  |  |  |  |  |  |  | 5160 | 412 | 6600 | 322 | 16
23 | CC[C@@H]1C(=O)N(C)c2cnc(Nc3cc(N4CCN(C)CC4)cc(Cl)c3OCCO)nc2N1C1CCCC1 |  |  |  |  |  |  |  |  | 5760 | 764 | 7850 | 576 | 11
24 | CC[C@@H]1C(=O)N(C)c2cnc(Nc3cc(N4CCN(C)CC4)cc(F)c3OCCO)nc2N1C(C)C |  |  |  |  |  |  |  |  | > 10000 | > 330 | > 10000 | > 330 | 30
25 | CC[C@@H]1C(=O)N(C)c2cnc(Nc3cc(N4CCN(CC)CC4)cc(F)c3OC)nc2N1C1CCCC1 |  |  |  |  |  |  |  |  | 1290 | 51 | 610 | 107 | 12
26 | CC[C@@H]1C(=O)N(C)c2cnc(Nc3cc(N4CCN(CC)CC4)ccc3OCCO)nc2N1C(C)C |  |  |  |  |  |  |  |  | > 10000 | > 135 | > 10000 | > 135 | 74
27 | CC[C@@H]1C(=O)N(C)c2cnc(Nc3cc(N(C)CCN(C)C)cc(F)c3OCCCO)nc2N1C1CCCC1 |  |  |  |  |  |  |  |  | 1460 | 292 | 5870 | 72 | 20
28 | CC[C@@H]1C(=O)N(C)c2cnc(Nc3cc(N4CCN(C)CC4)cc(F)c3OC)nc2N1C1CCCC1 |  |  |  |  |  |  |  |  | 1180 | 42 | 459 | 108 | 11
29 | CC[C@@H]1C(=O)N(C)c2cnc(Nc3cc(N4CCC(NC(=O)OC(C)(C)C)CC4)ccc3OCCO)nc2N1C1CCCC1 |  |  |  |  |  |  |  |  | > 10000 | > 67.1 | > 10000 | > 67.1 | 149
30 | CC[C@@H]1C(=O)N(C)c2cnc(Nc3cc(N4CCN(C)CC4)cc(F)c3OC[C@H](C)O)nc2N1C1CCCC1 | 1540 | 63 | 1990 | 588 | 326 | 7.7 | 18 | 54 | 3670 | > 658 | > 10000 | 373 | 15
31 | CC[C@@H]1C(=O)N(C)c2cnc(Nc3cc(N4CCN(C)CC4)ccc3OCCO)nc2N1C(C)C |  |  |  |  |  |  |  |  | > 10000 | > 303 | > 10000 | > 303 | 33
32 | CC[C@@H]1C(=O)N(C)c2cnc(Nc3cc(N4CCN(CC)CC4)ccc3OCCCO)nc2N1C1CCCC1 |  |  |  |  |  |  |  |  | 4910 | > 357 | > 10000 | 175 | 26
33 | CC[C@@H]1C(=O)N(C)c2cnc(Nc3cc(N4CCC(NC(=O)OC(C)(C)C)CC4)ccc3OCCCO)nc2N1C1CCCC1 |  |  |  |  |  |  |  |  | > 10000 | > 104 | > 10000 | > 104 | 97
34 | CC[C@@H]1C(=O)N(C)c2cnc(Nc3cc(N4CCN(C)CC4)cc(F)c3OCCCO)nc2N1C1CCNC1 (some centres undefined) |  |  |  |  |  |  |  |  |  |  |  |  | 7460
35 | CC[C@@H]1C(=O)N(C)c2cnc(Nc3cc(N4CCC(NC(=O)OC(C)(C)C)CC4)ccc3OC)nc2N1C1CCCC1 |  |  |  |  |  |  |  |  | 6450 | 22 | 3370 | 43 | 152
36 | CC[C@@H]1C(=O)N(C)c2cnc(Nc3cc(N4CCNCC4)ccc3OCCCO)nc2N1C(C)C |  |  |  |  |  |  |  |  | > 10000 | > 250 | > 10000 | > 250 | 40
37 | CC[C@@H]1C(=O)N(C)c2cnc(Nc3cc(N4CCN(C)CC4)cc(Cl)c3OC)nc2N1C1CCCC1 |  |  |  |  |  |  |  |  | 778 | 27 | 325 | 64 | 12
38 | CC[C@@H]1C(=O)N(C)c2cnc(Nc3cc(N(C)CCN(C)C)cc(F)c3OC)nc2N1C1CCCC1 |  |  |  |  |  |  |  |  | 625 | 32 | 422 | 48 | 13
